Data from ChEMBL document CHEMBL1201862, “PubChem BioAssay data set” (2004).
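Test compounds were applied to cells in 96-well plates for 48 hours at 5 doses. At the GI50, growth is halved.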 Calls of active or inactive are those of the source. No stated cut-off is given here; in the data, active = GI50 up to about 1.1 µM and inactive = higher.

Legend:
Assay in all cases: NCI anticancer screen, dose series, 48 h
DU-145 = tested on: DU-145
HCC 2998 = tested on: HCC 2998
HCT-15 = tested on: HCT-15
HT-29 = tested on: HT-29
Hs-578T = tested on: Hs-578T
K562 = tested on: K562
M14 = tested on: M14
Malme-3M = tested on: Malme-3M
NCI-H522 = tested on: NCI-H522
NCI/ADR-RES = tested on: NCI/ADR-RES
OVCAR-5 = tested on: OVCAR-5
OVCAR-8 = tested on: OVCAR-8
SF-268 = tested on: SF-268
SF-295 = tested on: SF-295
SK-MEL-28 = tested on: SK-MEL-28
SK-MEL-2 = tested on: SK-MEL-2
SK-MEL-5 = tested on: SK-MEL-5
SK-OV-3 = tested on: SK-OV-3
UACC-62 = tested on: UACC-62

Compound | GI50 (DU-145) | GI50 (HCC 2998) | GI50 (HCT-15) [µM] | GI50 (HT-29) | GI50 (Hs-578T) | GI50 (K562) | GI50 (M14) | GI50 (Malme-3M) | GI50 (NCI-H522) | GI50 (NCI/ADR-RES) | GI50 (OVCAR-5) | GI50 (OVCAR-8) | GI50 (SF-268) | GI50 (SF-295) | GI50 (SK-MEL-28) | GI50 (SK-MEL-2) | GI50 (SK-MEL-5) | GI50 (SK-OV-3) | GI50 (UACC-62)
Cc1ncc(-c2nnnn2-c2ccccc2)c(C(=O)O)n1 | > 100 µM (inactive) | > 100 µM (inactive) | > 100 | > 100 µM (inactive) | > 100 µM (inactive) | > 100 µM (inactive) | > 100 µM (inactive) | > 100 µM (inactive) | > 100 µM (inactive) | > 100 µM (inactive) | > 100 µM (inactive) | > 100 µM (inactive) | > 100 µM (inactive) | > 100 µM (inactive) | > 100 µM (inactive) | 33.3 µM (inactive) | > 100 µM (inactive) | > 100 µM (inactive) | > 100 µM (inactive)
CCN(CC)P1(=S)Oc2ccc3ccccc3c2-c2c(ccc3ccccc23)O1 | > 100 µM (inactive) | 77.4 µM (inactive) | 63.4 | 18.5 µM (inactive) | 40.3 µM (inactive) | > 100 µM (inactive) | > 100 µM (inactive) | 72.8 µM (inactive) | 60.1 µM (inactive) | > 100 µM (inactive) | > 100 µM (inactive) | > 100 µM (inactive) |  | > 100 µM (inactive) | > 100 µM (inactive) | > 100 µM (inactive) | > 100 µM (inactive) | > 100 µM (inactive) | > 100 µM (inactive)
CC(=O)O[C@@H]1C[C@]2(C(=O)c3ccccc3)C(=O)C(=O)S[C@]12c1ccccc1 | 51.8 µM (inactive) | 26.7 µM (inactive) | 32.9 | 67.9 µM (inactive) | 39.5 µM (inactive) | 24.8 µM (inactive) | 38.4 µM (inactive) | > 100 µM (inactive) | 29.6 µM (inactive) | 41.6 µM (inactive) | > 100 µM (inactive) | 36.4 µM (inactive) | 34.4 µM (inactive) | 65.9 µM (inactive) | 58.3 µM (inactive) | 38.5 µM (inactive) | 32.4 µM (inactive) | 50 µM (inactive) | 39.7 µM (inactive)
N#CC(C#N)[C@@H]1CCC=C(Sc2ccccc2)[C@H]1Sc1ccccc1 | 2.72 µM (inactive) | 2.86 µM (inactive) | 2.4 | 3.87 µM (inactive) | 5.16 µM (inactive) | 2.36 µM (inactive) | 1.96 µM (inactive) | 2.42 µM (inactive) | 2.19 µM (inactive) | 2.72 µM (inactive) | 5.58 µM (inactive) | 2.7 µM (inactive) | 5.62 µM (inactive) | 6.44 µM (inactive) | 2.72 µM (inactive) | 3.07 µM (inactive) | 3.41 µM (inactive) | 4.54 µM (inactive) | 3.56 µM (inactive)
COc1cccc(C23CCCC(C2)N(C)CC3OC(=O)c2ccccc2)c1OC (stereo unspecified) | 36 µM (inactive) | 22.9 µM (inactive) | 22.5 | 13.2 µM (inactive) | 24.4 µM (inactive) | 18.8 µM (inactive) | 15.9 µM (inactive) | 16.6 µM (inactive) | 22.6 µM (inactive) | 20.7 µM (inactive) | 26.4 µM (inactive) | 16.4 µM (inactive) | 32 µM (inactive) | 19.4 µM (inactive) | 28 µM (inactive) | 31.8 µM (inactive) | 14 µM (inactive) | 34 µM (inactive) | 25.9 µM (inactive)
O=c1c2ccccc2nc(N/N=C/c2ccccc2O)n1-c1ccccc1 | 5 µM (inactive) | 5.27 µM (inactive) | 2.97 | 4.55 µM (inactive) | 7.82 µM (inactive) | 4.5 µM (inactive) | 4.52 µM (inactive) | 12.2 µM (inactive) | 4.84 µM (inactive) | 2.27 µM (inactive) | 7.18 µM (inactive) | 1.99 µM (inactive) | 2.13 µM (inactive) | 6.4 µM (inactive) | 11.4 µM (inactive) | 7.67 µM (inactive) | 4.56 µM (inactive) | 13.8 µM (inactive) | 2.77 µM (inactive)
Cc1nc(NC(C)(CO)CO)nc(N/N=C/c2ccc(Cl)cc2)c1C(=O)Nc1ccc(Cl)cc1 | > 100 µM (inactive) | > 100 µM (inactive) | > 100 | > 100 µM (inactive) | > 100 µM (inactive) | > 100 µM (inactive) | > 100 µM (inactive) | > 100 µM (inactive) | 48.1 µM (inactive) | > 100 µM (inactive) | > 100 µM (inactive) | > 100 µM (inactive) | > 100 µM (inactive) | > 100 µM (inactive) | > 100 µM (inactive) | > 100 µM (inactive) |  | > 100 µM (inactive) | 59.8 µM (inactive)
